Laboratory results as given in PMC3427755 (Organic & biomolecular chemistry, 2012).
“Also recorded” adds a separate entry of the source.

How the values were obtained:
[1] = target: SRC (Homo sapiens, UniProt P12931); assay: Kinase profiling, SRC; format: biochemical; details: read-out: Inhibition rate (%) SRC
[2] = target: LCK (Homo sapiens, UniProt P06239); assay: Kinase profiling, LCK; format: biochemical; details: read-out: Inhibition rate (%) LCK
[3] = target: cKIT (Homo sapiens, UniProt P10721); assay: Kinase profiling, cKIT; format: biochemical; details: read-out: Inhibition rate (%) cKIT
Sequence of cKIT (P10721 26-976): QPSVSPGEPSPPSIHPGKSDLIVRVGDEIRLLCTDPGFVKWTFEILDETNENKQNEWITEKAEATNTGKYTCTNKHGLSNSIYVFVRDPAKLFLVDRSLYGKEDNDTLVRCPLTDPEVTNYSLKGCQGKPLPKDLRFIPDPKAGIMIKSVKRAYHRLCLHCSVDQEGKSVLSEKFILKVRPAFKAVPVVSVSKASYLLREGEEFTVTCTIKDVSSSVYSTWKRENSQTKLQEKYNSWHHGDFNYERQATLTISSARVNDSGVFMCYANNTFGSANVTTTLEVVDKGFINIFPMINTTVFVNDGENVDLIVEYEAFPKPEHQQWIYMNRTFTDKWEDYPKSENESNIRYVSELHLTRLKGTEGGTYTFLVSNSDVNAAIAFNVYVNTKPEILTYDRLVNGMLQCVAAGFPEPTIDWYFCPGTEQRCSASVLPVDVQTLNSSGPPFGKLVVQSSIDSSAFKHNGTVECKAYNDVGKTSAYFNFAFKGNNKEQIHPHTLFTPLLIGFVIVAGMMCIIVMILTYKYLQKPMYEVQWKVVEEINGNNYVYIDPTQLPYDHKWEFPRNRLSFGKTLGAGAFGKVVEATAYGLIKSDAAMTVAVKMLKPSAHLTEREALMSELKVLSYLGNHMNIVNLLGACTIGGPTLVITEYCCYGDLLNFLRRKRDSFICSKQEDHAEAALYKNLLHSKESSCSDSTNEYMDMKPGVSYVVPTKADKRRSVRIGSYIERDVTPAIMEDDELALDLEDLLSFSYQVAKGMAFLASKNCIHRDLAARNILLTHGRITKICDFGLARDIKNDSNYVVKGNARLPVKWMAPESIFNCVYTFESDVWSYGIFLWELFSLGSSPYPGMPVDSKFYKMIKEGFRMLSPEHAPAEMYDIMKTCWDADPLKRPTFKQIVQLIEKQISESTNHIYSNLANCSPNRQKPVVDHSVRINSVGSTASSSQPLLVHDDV

[4] = target: IGF1R (Homo sapiens, UniProt P08069); assay: Kinase profiling, IGF1R; format: biochemical; details: read-out: Inhibition rate (%) IGF1R
Sequence of IGF1R (P08069 31-1367, species assumed): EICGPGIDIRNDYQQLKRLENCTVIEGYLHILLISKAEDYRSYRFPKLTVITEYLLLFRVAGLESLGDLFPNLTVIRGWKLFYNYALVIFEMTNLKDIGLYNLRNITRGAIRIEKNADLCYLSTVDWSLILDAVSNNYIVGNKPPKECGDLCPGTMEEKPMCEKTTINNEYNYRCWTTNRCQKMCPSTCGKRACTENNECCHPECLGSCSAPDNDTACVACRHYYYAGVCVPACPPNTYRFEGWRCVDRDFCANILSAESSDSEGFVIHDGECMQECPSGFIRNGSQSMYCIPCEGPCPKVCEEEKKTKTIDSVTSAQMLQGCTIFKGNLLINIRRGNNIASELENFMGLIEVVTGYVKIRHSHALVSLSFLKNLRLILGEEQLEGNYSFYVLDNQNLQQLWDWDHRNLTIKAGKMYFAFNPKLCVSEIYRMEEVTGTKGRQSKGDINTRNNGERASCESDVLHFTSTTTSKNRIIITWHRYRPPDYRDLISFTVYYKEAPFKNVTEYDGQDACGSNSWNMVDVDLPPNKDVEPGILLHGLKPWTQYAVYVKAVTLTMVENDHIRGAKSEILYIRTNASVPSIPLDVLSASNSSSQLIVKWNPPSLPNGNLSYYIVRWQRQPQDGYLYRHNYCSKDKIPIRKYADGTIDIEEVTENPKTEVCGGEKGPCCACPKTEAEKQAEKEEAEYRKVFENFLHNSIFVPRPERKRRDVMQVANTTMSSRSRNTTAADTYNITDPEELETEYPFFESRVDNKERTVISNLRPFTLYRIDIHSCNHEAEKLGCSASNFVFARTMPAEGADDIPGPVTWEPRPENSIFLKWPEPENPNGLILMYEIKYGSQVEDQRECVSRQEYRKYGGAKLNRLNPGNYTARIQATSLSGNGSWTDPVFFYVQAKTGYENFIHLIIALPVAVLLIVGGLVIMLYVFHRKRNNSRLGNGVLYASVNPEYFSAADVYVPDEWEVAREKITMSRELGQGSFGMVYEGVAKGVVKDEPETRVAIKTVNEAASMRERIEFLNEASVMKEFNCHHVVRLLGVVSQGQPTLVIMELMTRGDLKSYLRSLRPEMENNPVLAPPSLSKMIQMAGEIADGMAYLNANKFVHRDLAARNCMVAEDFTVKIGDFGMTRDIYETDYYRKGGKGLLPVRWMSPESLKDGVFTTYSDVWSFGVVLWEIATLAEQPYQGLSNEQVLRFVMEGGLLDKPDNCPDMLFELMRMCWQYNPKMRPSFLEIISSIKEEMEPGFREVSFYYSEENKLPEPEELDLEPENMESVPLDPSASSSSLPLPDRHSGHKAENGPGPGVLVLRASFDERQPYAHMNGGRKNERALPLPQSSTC

[5] = target: KDR (Homo sapiens, UniProt P35968); assay: Kinase profiling, KDR; format: biochemical; details: read-out: Inhibition rate (%) KDR
[6] = system: 1205Lu (B-Raf^V600E bearing) melanoma cells; assay: Melanoma proliferation assay; format: cell-based, human; details: dose-dependent, 72 h, Figure 3
[7] = target: EGFR (Homo sapiens, UniProt P00533); assay: Kinase profiling, EGFR; format: biochemical; details: read-out: Inhibition rate (%) EGFR
[8] = target: AKT1 (Homo sapiens, UniProt P31749); assay: Kinase profiling, AKT1; format: biochemical; details: read-out: Inhibition rate (%) AKT1
Sequence of AKT1 (P31749 whole entry, species assumed): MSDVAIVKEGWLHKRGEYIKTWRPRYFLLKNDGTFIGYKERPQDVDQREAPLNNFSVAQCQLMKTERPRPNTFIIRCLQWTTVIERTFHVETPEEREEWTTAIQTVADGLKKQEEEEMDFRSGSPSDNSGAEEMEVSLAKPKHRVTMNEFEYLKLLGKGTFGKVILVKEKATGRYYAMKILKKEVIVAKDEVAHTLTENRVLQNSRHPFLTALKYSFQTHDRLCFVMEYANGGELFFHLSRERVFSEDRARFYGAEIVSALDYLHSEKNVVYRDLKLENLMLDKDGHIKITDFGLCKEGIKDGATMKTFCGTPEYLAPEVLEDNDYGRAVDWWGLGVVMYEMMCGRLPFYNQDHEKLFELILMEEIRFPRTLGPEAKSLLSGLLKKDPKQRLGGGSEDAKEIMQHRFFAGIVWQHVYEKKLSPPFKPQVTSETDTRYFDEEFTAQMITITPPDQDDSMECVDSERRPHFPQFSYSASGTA

[9] = target: PDGFRα (Homo sapiens, UniProt P16234); assay: Kinase profiling, PDGFRα; format: biochemical; details: read-out: Inhibition rate (%) PDGFRα
[10] = target: P38α (Homo sapiens, UniProt Q16539); assay: Kinase profiling, P38α; format: biochemical; details: read-out: Inhibition rate (%) P38α
[11] = target: FGFR1 (Homo sapiens, UniProt P11362); assay: Kinase profiling, FGFR1; format: biochemical; details: for inhibition at 1 µM / inhibition at 5 µM: read-out: Inhibition rate (%) FGFR1
Sequence of FGFR1 (P11362 22-822, species assumed): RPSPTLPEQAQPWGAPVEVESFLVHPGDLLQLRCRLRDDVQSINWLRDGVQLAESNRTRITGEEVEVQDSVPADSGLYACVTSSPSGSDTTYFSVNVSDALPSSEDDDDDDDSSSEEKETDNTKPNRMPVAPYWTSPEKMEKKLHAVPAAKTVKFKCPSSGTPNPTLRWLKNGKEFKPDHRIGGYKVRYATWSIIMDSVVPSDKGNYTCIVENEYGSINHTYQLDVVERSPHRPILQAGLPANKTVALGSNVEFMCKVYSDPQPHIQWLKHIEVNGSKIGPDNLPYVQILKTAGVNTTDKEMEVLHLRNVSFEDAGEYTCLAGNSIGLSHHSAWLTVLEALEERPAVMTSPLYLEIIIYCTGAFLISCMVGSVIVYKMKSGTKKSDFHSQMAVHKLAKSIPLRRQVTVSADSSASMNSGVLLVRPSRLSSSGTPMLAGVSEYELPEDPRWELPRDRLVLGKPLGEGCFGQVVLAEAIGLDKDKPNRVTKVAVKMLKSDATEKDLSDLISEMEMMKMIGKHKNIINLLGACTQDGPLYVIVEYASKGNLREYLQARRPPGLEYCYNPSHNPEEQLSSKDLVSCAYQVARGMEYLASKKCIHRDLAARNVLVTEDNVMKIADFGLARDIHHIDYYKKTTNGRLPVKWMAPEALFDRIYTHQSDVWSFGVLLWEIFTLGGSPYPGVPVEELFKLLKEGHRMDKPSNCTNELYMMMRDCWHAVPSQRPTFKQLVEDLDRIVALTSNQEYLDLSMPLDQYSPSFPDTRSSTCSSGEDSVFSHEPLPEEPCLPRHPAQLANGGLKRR

[12] = target: ERK1 (Homo sapiens, UniProt P27361); assay: Kinase profiling, ERK1; format: biochemical; details: read-out: Inhibition rate (%) ERK1
Sequence of ERK1 (P27361 whole entry, species assumed): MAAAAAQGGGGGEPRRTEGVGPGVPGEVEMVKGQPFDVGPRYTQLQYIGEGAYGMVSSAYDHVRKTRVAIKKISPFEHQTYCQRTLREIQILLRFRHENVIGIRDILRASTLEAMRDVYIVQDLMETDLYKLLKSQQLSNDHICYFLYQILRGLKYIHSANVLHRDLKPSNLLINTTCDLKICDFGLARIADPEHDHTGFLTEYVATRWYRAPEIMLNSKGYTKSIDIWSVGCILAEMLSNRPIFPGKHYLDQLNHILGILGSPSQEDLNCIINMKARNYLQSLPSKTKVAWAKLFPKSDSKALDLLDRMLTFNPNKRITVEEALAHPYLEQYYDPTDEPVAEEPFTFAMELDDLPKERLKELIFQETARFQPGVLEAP

[13] = target: PKCα (Homo sapiens, UniProt P17252); assay: Kinase profiling, PKCα; format: biochemical; details: read-out: Inhibition rate (%) PKCα
[14] = system: A375 (B-Raf^V600E) malignant melanoma cells; assay: Anti-proliferation activity, A375 melanoma cells; format: cell-based, human; details: for inhibition at 10 µM: Homo sapiens, A-375, read-out: Tumor growth inhibition rate A375(B-Raf^V600E); for Tumor growth inhibition rate A375(B-Raf^V600E): [I]=10μM
[15] = target: B-Raf^WT (Homo sapiens, UniProt P15056); assay: In vitro B-Raf kinase assay; format: biochemical
[16] = system: WM983B (B-Raf^V600E bearing) melanoma cells; assay: Melanoma proliferation assay; format: cell-based, human; details: dose-dependent, 72 h, Figure 3
[17] = target: T1, IKKβ (Homo sapiens, UniProt O14920); assay: Kinase profiling, IKKβ; format: biochemical; details: for inhibition at 1 µM / inhibition at 5 µM: read-out: Inhibition rate (%) IKKβ
T1 sequence (O14920 1-756): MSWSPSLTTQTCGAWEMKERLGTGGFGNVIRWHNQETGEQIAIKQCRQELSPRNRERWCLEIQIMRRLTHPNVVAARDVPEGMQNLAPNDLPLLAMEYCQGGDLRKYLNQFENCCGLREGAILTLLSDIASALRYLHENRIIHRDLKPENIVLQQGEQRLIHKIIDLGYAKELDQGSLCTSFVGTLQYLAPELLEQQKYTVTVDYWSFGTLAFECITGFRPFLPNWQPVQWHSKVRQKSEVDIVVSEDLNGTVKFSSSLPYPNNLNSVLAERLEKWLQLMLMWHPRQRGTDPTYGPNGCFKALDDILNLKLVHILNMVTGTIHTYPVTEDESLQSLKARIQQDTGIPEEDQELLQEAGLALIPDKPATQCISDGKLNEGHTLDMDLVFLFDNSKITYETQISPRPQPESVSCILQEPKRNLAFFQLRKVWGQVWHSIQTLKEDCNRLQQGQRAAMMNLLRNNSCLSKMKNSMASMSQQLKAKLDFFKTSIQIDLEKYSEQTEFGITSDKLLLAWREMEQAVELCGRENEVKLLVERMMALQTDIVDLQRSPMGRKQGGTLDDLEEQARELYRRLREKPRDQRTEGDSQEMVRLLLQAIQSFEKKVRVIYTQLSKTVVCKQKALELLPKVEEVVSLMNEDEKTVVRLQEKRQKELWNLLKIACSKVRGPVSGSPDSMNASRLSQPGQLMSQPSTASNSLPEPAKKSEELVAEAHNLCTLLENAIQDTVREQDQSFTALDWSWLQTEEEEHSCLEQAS

[18] = system: normal human primary fibroblasts (FF2508); assay: Proliferation assay; format: cell-based; details: dose-dependent, 72 h, Figure 3
[19] = target: MET (Homo sapiens, UniProt P08581); assay: Kinase profiling, MET; format: biochemical; details: read-out: Inhibition rate (%) MET
[20] = target: CDK2 (Homo sapiens, UniProt P24941); assay: Kinase profiling, CDK2; format: biochemical; details: read-out: Inhibition rate (%) CDK2
[21] = system: WM3918 melanoma cells not expressing mutant B-Raf; assay: Melanoma proliferation assay; format: cell-based, human; details: dose-dependent, 72 h, Figure 3
[22] = target: B-Raf^V600E (Homo sapiens, UniProt P15056, V600E); assay: In vitro B-Raf kinase assay; format: biochemical
[23] = system: SW620 (B-Raf^WT) human colonic carcinoma cells; assay: Anti-proliferation activity, SW620 cells; format: cell-based; details: SW-620, read-out: Tumor growth inhibition rate SW620 (B-Raf)
[24] = system: patients harboring the B-Raf^V600E mutation; details: cited from earlier work

Sequence of SRC (P12931 whole entry, species assumed): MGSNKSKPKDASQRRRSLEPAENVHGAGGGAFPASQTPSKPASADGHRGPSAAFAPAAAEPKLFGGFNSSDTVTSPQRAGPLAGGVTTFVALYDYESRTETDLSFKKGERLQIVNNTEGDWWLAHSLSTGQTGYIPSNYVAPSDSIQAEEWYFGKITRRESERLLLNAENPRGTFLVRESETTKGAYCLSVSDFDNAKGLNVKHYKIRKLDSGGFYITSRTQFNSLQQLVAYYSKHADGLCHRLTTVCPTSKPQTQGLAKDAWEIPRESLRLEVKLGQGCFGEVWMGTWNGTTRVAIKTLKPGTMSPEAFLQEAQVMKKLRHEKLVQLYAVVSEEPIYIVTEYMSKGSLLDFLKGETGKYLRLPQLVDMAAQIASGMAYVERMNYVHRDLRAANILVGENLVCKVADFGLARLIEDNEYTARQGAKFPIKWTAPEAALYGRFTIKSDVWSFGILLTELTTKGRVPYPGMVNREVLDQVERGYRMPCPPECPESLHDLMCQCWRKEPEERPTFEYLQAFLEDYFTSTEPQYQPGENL
Sequence of LCK (P06239 whole entry, species assumed): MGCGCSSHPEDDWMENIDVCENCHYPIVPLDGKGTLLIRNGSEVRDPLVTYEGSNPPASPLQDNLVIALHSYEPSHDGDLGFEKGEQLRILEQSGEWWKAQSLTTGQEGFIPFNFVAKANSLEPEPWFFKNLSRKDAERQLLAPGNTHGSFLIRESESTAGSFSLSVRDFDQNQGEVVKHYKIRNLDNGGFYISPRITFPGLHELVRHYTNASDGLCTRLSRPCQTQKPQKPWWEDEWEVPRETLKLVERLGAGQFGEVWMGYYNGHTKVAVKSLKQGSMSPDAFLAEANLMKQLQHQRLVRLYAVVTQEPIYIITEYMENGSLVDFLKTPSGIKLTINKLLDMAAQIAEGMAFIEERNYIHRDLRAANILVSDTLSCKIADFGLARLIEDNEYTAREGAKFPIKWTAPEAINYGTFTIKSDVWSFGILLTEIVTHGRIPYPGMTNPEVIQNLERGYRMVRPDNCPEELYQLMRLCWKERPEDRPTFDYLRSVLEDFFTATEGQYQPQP

| SMILES | inhibition at 1 µM [1] [%] | inhibition at 5 µM [1] [%] | inhibition at 5 µM [2] [%] | inhibition at 1 µM [3] [%] | inhibition at 5 µM [3] [%] | inhibition at 1 µM [4] [%] | inhibition at 5 µM [4] [%] | inhibition at 5 µM [5] [%] | proliferation of 1205Lu cells [6] | inhibition at 5 µM [7] [%] | inhibition at 1 µM [8] [%] | inhibition at 5 µM [8] [%] | inhibition at 1 µM [9] [%] | inhibition at 5 µM [9] [%] | inhibition at 1 µM [11] [%] | inhibition at 5 µM [11] [%] | inhibition at 1 µM [12] [%] | inhibition at 5 µM [12] [%] | inhibition at 5 µM [13] [%] | inhibition at 10 µM [14] [%] | other results |
| --- | --- | --- | --- | --- | --- | --- | --- | --- | --- | --- | --- | --- | --- | --- | --- | --- | --- | --- | --- | --- | --- |
| O=C1NC(=S)NC(=O)C1=Cc1ccc(-c2ccc(Br)cc2)o1 [Compound 22f, 5-[5-(4-bromo-phenyl)-furan-2ylmethylene]-2-thioxo-dihydro-pyrimidine-4,6-dione] | 8.6 | 28.3 | 10.5 | 18.6 | 40.3 | 9.5 | 15.6 | 6.1 | significantly inhibited | 46.1 | 10.8 | 20.3 | 7.2 | 20.4 | 15 | 72.2 | 14.5 | 30.7 | 26.4 | 65.3 | inhibition at 1 µM [2]: 10.5%; inhibition at 1 µM [5]: 3.9%; inhibition at 1 µM [7]: 12.6%; inhibition at 5 µM [10]: 7.7%; Inhibition rate (%) FGFR1 ([11]; 5μM, ATP at Km): significantly inhibited; inhibition at 1 µM [13]: 16.2%; Tumor growth inhibition rate A375(B-Raf^V600E) [14]: potent growth inhibition activity; IC50 [15]: 600 nM; proliferation of WM983B cells [16]: significantly inhibited; Inhibition rate (%) IKKβ ([17]; 5μM, ATP at Km): significantly inhibited; inhibition at 1 µM [17]: 27.8%; inhibition at 5 µM [17]: 52.1%; proliferation of FF2508 fibroblasts [18]: significantly more resistant; inhibition at 1 µM [19]: 34.2%; inhibition at 5 µM [19]: 42.2%; inhibition at 1 µM [20]: 11.6%; inhibition at 5 µM [20]: 39.7%; proliferation of WM3918 cells [21]: significantly more resistant |
| COc1ccc(-c2ccc(C=C3C(=O)NC(=S)NC3=O)o2)cc1 [Compound 22h, 5-[5-(4-methoxy-phenyl)-furan-2ylmethylene]-2-thioxo-dihydro-pyrimidine-4,6-dione] |  |  |  |  |  |  |  |  |  |  |  |  |  |  |  |  |  |  |  | 94.4 | IC50 [22]: 2690 nM; inhibition at 10 µM [23]: 13%; Tumor growth inhibition rate A375(B-Raf^V600E) ([14]; 10 µM): potent growth inhibition activity; also recorded: virtually complete growth inhibition; IC50 [15]: 3690 nM |
| O=C1NC(=S)NC(=O)C1=Cc1ccc(-c2ccc3c(c2)OCO3)o1 [Compound 22q, 5-[5-(3,4-methylenedioxy)-furan-2ylmethylene]-2-thioxo-dihydro-pyrimidine-4,6-dione] | 6.2 | 15.2 | 0.8 | 18.3 | 20 | 5.6 | 6.8 | 1.2 | significantly inhibited | 19.4 | 4.6 | 14.5 | 6 | 7.7 | 4.9 | 18.6 | 10 | 13.7 | 5.2 | 77.7 | selectivity for B-Raf^V600E over other tested protein kinases ([22]; panel of 16 protein kinases): more than 10 fold; inhibition at 10 µM [23]: 47.7%; Tumor growth inhibition rate A375(B-Raf^V600E) [14]: potent growth inhibition activity; proliferation of WM983B cells [16]: significantly inhibited; inhibition at 1 µM [17]: 15%; inhibition at 5 µM [17]: 35.7%; proliferation of FF2508 fibroblasts [18]: significantly more resistant; inhibition at 1 µM [19]: 18.6%; inhibition at 5 µM [19]: 19.4%; inhibition at 1 µM [20]: 3.3%; inhibition at 5 µM [20]: 12.6%; proliferation of WM3918 cells [21]: significantly more resistant |
| CCCS(=O)(=O)Nc1ccc(F)c(C(=O)c2c[nH]c3ncc(-c4ccc(Cl)cc4)cc23)c1F [Vemurafenib] |  |  |  |  |  |  |  |  |  |  |  |  |  |  |  |  |  |  |  |  | side effects in treated patients ([24]; Vemurafenib treated patients): induction of keratoacanthoma was frequently observed; tumor regression in patients ([24]; patients harboring the B-Raf^V600E mutation): complete or partial tumor regression in the majority of patients |
